From patent publication US8846951B2 (AbbVie Inc., priority 2009, dated 2014)
Read-outs that look alike come from different tables or passages of the source.

How the values were obtained:
[1] = molecular target: T1, 5HT2B receptors (Homo sapiens, UniProt P41595); test: Human 5-HT2B functional high throughput screening assay in CHO-K1 cells (calcium flux); format: cell-based; settings: for EC50: CHO-K1 cells, calcium flux; for Emax: 5-HT2B, maximum functional response as percentage relative to the effect of serotonin
T1 construct: expressed in transfected cells; host or cells: CHO-K1 cells
T1 sequence (P41595 whole entry): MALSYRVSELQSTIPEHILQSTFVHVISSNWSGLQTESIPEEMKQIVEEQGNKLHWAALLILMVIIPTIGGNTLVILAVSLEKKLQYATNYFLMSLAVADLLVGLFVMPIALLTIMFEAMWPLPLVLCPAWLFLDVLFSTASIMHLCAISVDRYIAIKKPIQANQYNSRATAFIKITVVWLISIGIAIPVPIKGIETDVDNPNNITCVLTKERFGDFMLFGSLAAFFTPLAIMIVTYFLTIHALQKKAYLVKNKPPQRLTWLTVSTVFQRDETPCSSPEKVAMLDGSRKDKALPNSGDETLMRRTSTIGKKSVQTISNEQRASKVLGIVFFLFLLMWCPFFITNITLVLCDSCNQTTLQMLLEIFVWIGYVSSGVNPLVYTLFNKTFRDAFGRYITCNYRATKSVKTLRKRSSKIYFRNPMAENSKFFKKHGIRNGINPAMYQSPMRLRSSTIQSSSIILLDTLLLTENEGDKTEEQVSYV
In short: (§1)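 Frozen CHO-K1 cells overexpressing the receptor were plated, serum-starved overnight, then loaded with Ca4 dye plus 2.5 mM probenecid for 60 min at room temperature. FLIPR fluorescence (ex 480/em 530 nm, 25 °C) after compound addition was normalized to serotonin; EC50 and Emax came from 4-parameter logistic fits.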

[2] = molecular target: T2, 5HT2C receptors (Homo sapiens, UniProt P28335); test: Human 5-HT2C functional high throughput screening assay in CHO-K1 cells (calcium flux); format: cell-based; design: expressed in transfected cells; host or cells: CHO-K1 cells; settings: for EC50: CHO-K1 cells, calcium flux; for Emax: CHO-K1, 5-HT2C, maximum functional response as percentage relative to the effect of serotonin
T2 sequence (P28335 33-458): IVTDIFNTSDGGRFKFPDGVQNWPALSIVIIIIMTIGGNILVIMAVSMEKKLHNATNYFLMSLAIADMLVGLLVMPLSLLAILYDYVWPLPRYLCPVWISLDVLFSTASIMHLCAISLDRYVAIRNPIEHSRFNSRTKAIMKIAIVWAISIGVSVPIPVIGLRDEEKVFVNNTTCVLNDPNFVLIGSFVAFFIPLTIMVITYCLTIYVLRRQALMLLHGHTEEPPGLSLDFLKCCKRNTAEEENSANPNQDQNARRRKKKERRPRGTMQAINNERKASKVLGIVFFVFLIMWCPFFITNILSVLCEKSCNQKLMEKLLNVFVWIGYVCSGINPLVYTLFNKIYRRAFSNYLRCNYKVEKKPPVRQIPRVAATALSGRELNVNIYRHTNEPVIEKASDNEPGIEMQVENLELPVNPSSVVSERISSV
In short: as §1

[3] = 5-HT2B agonist activity, read-out: EC50
[4] = 5-HT2C agonist activity, read-out: EC50

Row | SMILES | EC50 [1, 3] [nM] | Emax [1] | EC50 [2, 4] [nM] | Emax ([2]; read-out: Emax) [%] | Emax [2] [%] | Emax ([1]; CHO-K1, read-out: Emax) [%] | EC50 ([1]; EC50, 5-HT2B agonist activity) [nM] | EC50 ([2]; EC50, 5-HT2C agonist activity) [nM]
1 | CS(=O)(=O)c1ccccc1-c1ccc2c(c1)C(=O)NC[C@@H]1CNC[C@@H]21 (relative stereo) [Example 231, Trans-8-(2-(methylsulfonyl)phenyl)-1,2,3,3a,4,5-hexahydrobenzo[c]pyrrolo[3,4-e]azepin-6(10bH)-one] | > 10000 | inactive | 900 | 105 | – | – | – | –
2 | CN1C[C@H]2CNC(=O)c3cc(-c4ccccc4S(C)(=O)=O)ccc3[C@@H]2C1 (relative stereo) [Example 232, Trans-2-methyl-8-(2-(methylsulfonyl)phenyl)-1,2,3,3a,4,5-hexahydrobenzo[c]pyrrolo[3,4-e]azepin-6(10bH)-one] | > 10000 | inactive | 3000 | 30 | – | – | – | –
3 | CC(=O)c1cccc(-c2ccc3c(c2)C(=O)NC[C@@H]2CNC[C@@H]32)c1.Cl (relative stereo) [Example 236, Trans-8-(3-acetylphenyl)-1,2,3,3a,4,5-hexahydrobenzo[c]pyrrolo[3,4-e]azepin-6(10bH)-one hydrochloride] | > 10000 | inactive | 0.3 | – | > 120 | – | – | –
4 | CC(=O)c1cccc(-c2ccc3c(c2)C(=O)NC[C@@H]2CN(C)C[C@@H]32)c1 (relative stereo) [Example 237, Trans-8-(3-acetylphenyl)-2-methyl-1,2,3,3a,4,5-hexahydrobenzo[c]pyrrolo[3,4-e]azepin-6(10bH)-one] | > 10000 | inactive | 3 | > 120 | – | – | – | –
5 | CC(O)c1cccc(-c2ccc3c(c2)C(=O)NC[C@@H]2CN(C)C[C@@H]32)c1 (relative stereo) [Example 238, Trans-8-(3-(1-hydroxyethyl)phenyl)-2-methyl-1,2,3,3a,4,5-hexahydrobenzo[c]pyrrolo[3,4-e]azepin-6(10bH)-one] | > 10000 | inactive | 0.7 | > 120 | – | – | – | –
6 | N#Cc1cccc(-c2ccc3c(c2)C(=O)NC[C@@H]2CNC[C@@H]32)c1 (relative stereo) [Example 239, 3-(Trans-6-oxo-1,2,3,3a,4,5,6,10b-octahydrobenzo[c]pyrrolo[3,4-e]azepin-8-yl)benzonitrile] | 2000 | – | 0.8 | > 120 | – | 20 | – | –
7 | CN1C[C@H]2CNC(=O)c3cc(-c4cccc(C#N)c4)ccc3[C@@H]2C1 (relative stereo) [Example 240, 3-(Trans-2-methyl-6-oxo-1,2,3,3a,4,5,6,10b-octahydrobenzo[c]pyrrolo[3,4-e]azepin-8-yl)benzonitrile] | > 10000 | inactive | 10 | > 120 | – | – | – | –
8 | O=C1NC[C@@H]2CNC[C@H]2c2ccc(C3=CCOCC3)cc21 (relative stereo) [Example 241, Trans-8-(3,6-dihydro-2H-pyran-4-yl)-1,2,3,3a,4,5-hexahydrobenzo[c]pyrrolo[3,4-e]azepin-6(10bH)-one] | > 10000 | inactive | 7 | > 120 | – | – | – | –
9 | CN1C[C@H]2CNC(=O)c3cc(C4=CCOCC4)ccc3[C@@H]2C1 (relative stereo) [Example 242, Trans-8-(3,6-dihydro-2H-pyran-4-yl)-2-methyl-1,2,3,3a,4,5-hexahydrobenzo[c]pyrrolo[3,4-e]azepin-6(10bH)-one] | > 10000 | inactive | 200 | > 120 | – | – | – | –
10 | CN1C[C@H]2CNC(=O)c3cc(Oc4ccc(F)cc4)ccc3[C@@H]2C1 (relative stereo) [Example 243, Trans-8-(4-fluorophenoxy)-2-methyl-1,2,3,3a,4,5-hexahydrobenzo[c]pyrrolo[3,4-e]azepin-6(10bH)-one] | > 10000 | inactive | 60 | > 120 | – | – | – | –
11 | CC(C)Cc1ccc2c(c1)C(=O)NC[C@@H]1CN(C)C[C@@H]21 (relative stereo) [Example 244, Trans-8-isobutyl-2-methyl-1,2,3,3a,4,5-hexahydrobenzo[e]pyrrolo[3,4-c]azepin-6(10bH)-one] | – | inactive | – | – | 80 | – | > 10000 | 100
12 | CC1(C)CCC(Oc2ccc3c(c2)C(=O)NC[C@@H]2CNC[C@@H]32)CC1 (relative stereo) [Example 246, Trans-8-(4,4-dimethylcyclohexyloxy)-1,2,3,3a,4,5-hexahydrobenzo[e]pyrrolo[3,4-c]azepin-6(10bH)-one] | – | inactive | – | – | 100 | – | > 10000 | 40
13 | O=C1CCc2ccc(-c3ccc4c(c3)C(=O)NC[C@@H]3CNC[C@@H]43)cc21 (relative stereo) [Example 247, Trans-8-(3-oxo-2,3-dihydro-1H-inden-5-yl)-1,2,3,3a,4,5-hexahydrobenzo[c]pyrrolo[3,4-e]azepin-6(10bH)-one] | > 10000 | inactive | 8 | > 120 | – | – | – | –
14 | CCS(=O)(=O)c1cccc(-c2ccc3c(c2)C(=O)NC[C@@H]2CNC[C@@H]32)c1 (relative stereo) [Example 250, Trans-8-(3-(ethylsulfonyl)phenyl)-1,2,3,3a,4,5-hexahydrobenzo[c]pyrrolo[3,4-e]azepin-6(10bH)-one] | > 10000 | inactive | 3 | 105 | – | – | – | –
15 | CN1C[C@H]2CNC(=O)c3cc(-c4ccc5c(c4)C(=O)CC5)ccc3[C@@H]2C1 (relative stereo) [Example 251, Trans-2-methyl-8-(3-oxo-2,3-dihydro-1H-inden-5-yl)-1,2,3,3a,4,5-hexahydrobenzo[c]pyrrolo[3,4-e]azepin-6(10bH)-one] | > 10000 | inactive | 400 | > 120 | – | – | – | –
16 | O=C1NC[C@@H]2CNC[C@H]2c2ccc(-c3cccc(CCO)c3)cc21 (relative stereo) [Example 252, Trans-8-(3-(2-hydroxyethyl)phenyl)-1,2,3,3a,4,5-hexahydrobenzo[c]pyrrolo[3,4-e]azepin-6(10bH)-one] | > 10000 | inactive | 0.4 | > 120 | – | – | – | –
17 | CN1C[C@H]2CNC(=O)c3cc(-c4cccc(CCO)c4)ccc3[C@@H]2C1 (relative stereo) [Example 253, Trans-8-(3-(2-hydroxyethyl)phenyl)-2-methyl-1,2,3,3a,4,5-hexahydrobenzo[c]pyrrolo[3,4-e]azepin-6(10bH)-one] | > 10000 | inactive | 7 | > 120 | – | – | – | –
18 | c1ccc(CN2C[C@H]3CCNc4ccccc4[C@@H]3C2)cc1 (relative stereo) [Example 254, Trans-2-benzyl-1,2,3,3a,4,5,6,10b-octahydrobenzo[b]pyrrolo[3,4-d]azepine] | 800 | – | 1000 | 105 | – | 30 | – | –
19 | CCS(=O)(=O)c1cccc(-c2ccc3c(c2)C(=O)NC[C@@H]2CN(C)C[C@@H]32)c1 (relative stereo) [Example 255, Trans-8-(3-(ethylsulfonyl)phenyl)-2-methyl-1,2,3,3a,4,5-hexahydrobenzo[c]pyrrolo[3,4-e]azepin-6(10bH)-one] | > 10000 | inactive | 30 | 90 | – | – | – | –
20 | O=C1NC[C@@H]2CN(Cc3ccccc3)C[C@H]2c2cc3ccccc3cc21 (relative stereo) [Example 256, Trans-2-benzyl-1,2,3,3a,4,5-hexahydronaphtho[2,3-c]pyrrolo[3,4-e]azepin-6(12bH)-one] | > 10000 | inactive | 100 | 90 | – | – | – | –
21 | O=C1NC[C@@H]2CNC[C@H]2c2cc3ccccc3cc21 (relative stereo) [Example 257, Trans-1,2,3,3a,4,5-hexahydronaphtho[2,3-e]pyrrolo[3,4-e]azepin-6(12bH)-one] | 60 | – | 20 | 120 | – | 40 | – | –
22 | O=C1NC[C@@H]2CNC[C@H]2c2cc3c(cc21)CCCC3 (relative stereo) [Example 258, Trans-1,2,3,3a,4,5,8,9,10,11-decahydronaphtho[2,3-c]pyrrolo[3,4-e]azepin-6(12bH)-one] | – | inactive | – | – | 100 | – | > 10000 | 10
23 | COc1ccc2c(c1)[C@H]1CN(Cc3ccccc3)C[C@@H]1CCC2=O (relative stereo) [Example 261, Trans-2-benzyl-9-methoxy-2,3,3a,4,5,10b-hexahydrobenzo[3,4]cyclohepta[1,2-c]pyrrol-6(1H)-one] | > 10000 | inactive | 40 | > 120 | – | – | – | –
